Among the data in patent US20240360114A1 (SIRONAX LTD., priority 2021, published 2024) are EC50 values, retold here.

As usually defined, the EC50 is the concentration at which the effect is half-maximal. Low values mean higher potency in that assay, high ones lower potency in that assay.

The first test relates to HT-1080 cells. Briefly: HT-1080 cell viability assay (ferroptosis induced by RSL3, Cell Titer-Glo). The conditions noted are these: Homo sapiens, HT-1080, 20 h, ferroptosis inducer RSL3, 20 hours, ferroptosis inhibitory activity, Table 2. It counts as cell-based. The method, boiled down:
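Cells seeded overnight, then co-treated with RSL3 and compound (3-fold, 10-point dilution, top 1.1 μM) for 20 hours. Viability by CellTiter-Glo luminescence, normalized to untreated controls; EC50 from sigmoidal non-linear regression.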
`CNCC1CC(Nc2ccc(C(C)(C)C)cc2)C1` (stereo not drawn) [Compound 237, 4-(tert-butyl)-N-(3-((methylamino)methyl)cyclobutyl)aniline] showed an EC50 of 1000 to 10000 nM.
The compound `CC1(C)CCN(c2ccc(NC3CCC(N)CC3)cc2C(F)(F)F)CC1` (stereo not drawn) [Compound 55, N1-(4-(4,4-dimethylpiperidin-1-yl)-3-(trifluoromethyl)phenyl)cyclohexane-1,4-diamine] showed an EC50 of 0.1 to 100 nM.
For `Cc1cc(NC[C@H]2CC[C@H](N)CC2)cc(C)c1N1CC(C)OC(C)C1` (stereo partly drawn) [Compound 451, (((1r,4r)-4-aminocyclohexyl)methyl)-4-(2,6-dimethylmorpholino)-3,5-dimethylaniline], the EC50 was in the range of 0.1 to 100 nM.
In turn, `NCC1CCC(Nc2ccc3c(c2)CCCC3)CC1` (stereo not drawn) [Compound 286, N-(4-(aminomethyl)cyclohexyl)-5,6,7,8-tetrahydronaphthalen-2-amine] returned an EC50 of 0.1 to 100 nM.
For the compound `CC1(C)CCC(c2ccc(NC3CCC(CN)CC3)cc2)CC1` (stereo not drawn) [Compound 78, N-(4-(aminomethyl)cyclohexyl)-4-(4,4-dimethylcyclohexyl)aniline], the EC50 is 0.1 to 100 nM.
The compound `CC(C)(C)c1ccc(N[C@@H]2C[C@H](N)C[C@H](N)C2)cc1` [Compound 345, (1s,3R,5S)-N1-(4-(tert-butyl)phenyl)cyclohexane-1,3,5-triamine] registered an EC50 of 100 to 1000 nM.
For the compound `CN(C)C1CCC(Nc2ccc(C(C)(C)C)cc2)CC1` (single isomer, unassigned) [Compound 193A, N1-(4-(tert-butyl)phenyl)-N4,N4-dimethylcyclohexane-1,4-diamine], the EC50 was 100 to 1000 nM.
On the same count and under the same terms, for `CCNC1C[C@@H]2CC(Nc3ccc(N4CCC(C(F)(F)F)CC4)cc3F)C[C@@H]2C1` (stereo partly drawn) [Compound 373, (3aR,6aS)-N2-ethyl-N5-(2-fluoro-4-(4-(trifluoromethyl)piperidin-1-yl)phenyl)octahydropentalene-2,5-diamine] the value was 0.1 to 100 nM.
Compound `Cc1nc(N2C3COCC2C3)ccc1NC1CC2(CC(N)C2)C1` (stereo not drawn) [Compound 523, N2-(6-(3-oxa-6-azabicyclo[3.1.1]heptan-6-yl)-2-methylpyridin-3-yl)spiro[3.3]heptane-2,6-diamine] had an EC50 of 1000 to 10000 nM.
`NC1CC2(C1)CC(Nc1ccc(N3CCN(CC(F)(F)F)CC3)cc1)C2` (stereo not drawn) [Compound 505, N2-(4-(4-(2,2,2-trifluoroethyl)piperazin-1-yl)phenyl)spiro[3.3]heptane-2,6-diamine] came in with an EC50 of 0.1 to 100 nM.
Regarding `CC(C)C1CCN(c2ncc(NC3CC4(CC(NCC(F)F)C4)C3)cn2)CC1` (stereo not drawn) [Compound 413, N2-(2,2-difluoroethyl)-N6-(2-(4-isopropylpiperidin-1-yl)pyrimidin-5-yl)spiro[3.3]heptane-2,6-diamine], the EC50 lay in the range of 0.1 to 100 nM.
On to `CC1CN(c2ccc(NC[C@H]3CC[C@H](N)CC3)c(F)c2)CC(C)O1` (stereo partly drawn) [Compound 431, N-(((1r,4r)-4-aminocyclohexyl)methyl)-4-(2,6-dimethylmorpholino)-2-fluoroaniline], for which the 50% effective concentration (EC50) fell in the range of 0.1 to 100 nM.
For the compound `CC1CCC(Nc2ccc(C3CCCCC3)cc2)CC1` (stereo not drawn) [Compound 269, 4-cyclohexyl-N-(4-methylcyclohexyl)aniline], the EC50 fell in the range of 100 to 1000 nM.
`Cc1cc(N2CCCCC2)ccc1NC[C@H]1CC[C@H](N)CC1` [Compound 379, N-(((1r,4r)-4-aminocyclohexyl)methyl)-2-methyl-4-(piperidin-1-yl)aniline] yielded an EC50 of 0.1 to 100 nM.
Still for that read-out and setting: for `CN1CCC(Nc2ccc(C3CCC(C)(C)CC3)cc2)CC1=O` (stereo not drawn) [Compound 103, 4-((4-(4,4-dimethylcyclohexyl)phenyl)amino)-1-methylpiperidin-2-one] the value was 100 to 1000 nM; for `C[C@H]1CN(c2ccc(NC[C@H]3CC[C@H](N)CC3)cc2F)C[C@H](C)O1` [Compound 478, N-(((1r,4S)-4-aminocyclohexyl)methyl)-4-((2S,6S)-2,6-dimethylmorpholino)-3-fluoroaniline], 0.1 to 100 nM; for `Cc1cc(C)c(NC2CCC(CN)CC2)c(C)c1` (stereo not drawn) [Compound 210, N-[4-(aminomethyl)cyclohexyl]-2,4,6-trimethylaniline], 1000 to 10000 nM.
Still for that read-out and setting: for `NC[C@@H]1CCC(Nc2ccc(N3CCC(C(F)(F)F)CC3)cc2)[C@@H](N)C1` (stereo partly drawn) [Compound 503, (2S, 4R)-4-(aminomethyl)-N1-(4-(4-(trifluoromethyl)piperidin-1-yl)phenyl)cyclohexane-1,2-dia mine bis(2,2,2-trifluoroacetate)] the value was 0.1 to 100 nM.
With `CC1(C)CCC(c2ccc(NC3CCC(N)CC3)cc2)CC1` (stereo not drawn) [Compound 74, N1-(4-(4,4-dimethylcyclohexyl)phenyl)cyclohexane-1,4-diamine], the EC50 is 0.1 to 100 nM.
Consider `CC1CC(Nc2ccc(C(C)(C)C)cc2)CCC1O` (stereo not drawn) [Compound 233A], for which the EC50 is 100 to 1000 nM.
As to `Cc1cc(C)cc(NC2CCC(N)CC2)c1` (stereo not drawn) [Compound 331, N1-(3,5-dimethylphenyl)cyclohexane-1,4-diamine], the EC50 lay in the range of 100 to 1000 nM.
As for `CCCCCCOc1cc(NC2CCC(N)CC2)ccc1C(C)(C)C` (stereo not drawn) [Compound 271, N1-(4-(tert-butyl)-3-(hexyloxy)phenyl)cyclohexane-1,4-diamine], the EC50 lay in the range of 0.1 to 100 nM.
The compound `CC1(C)CCC(c2ccc(NC3CCC(CN)CC3)cn2)CC1` (stereo not drawn) [Compound 167, N-(4-(aminomethyl)cyclohexyl)-6-(4,4-dimethylcyclohexyl)pyridin-3-amine] registered an EC50 of 100 to 1000 nM.
`COCCNC1CCC(Nc2ccc(C(C)(C)C)cc2)CC1` (stereo not drawn) [Compound 169, 1-N-(4-(tert-butyl)phenyl)-N4-(2-methoxyethyl)cyclohexane-1,4-diamine] gave a 50% effective concentration (EC50) of 100 to 1000 nM.
In turn, `Cc1cc(N2CC(C)OC(C)C2)ccc1NC1CCCCC1N` (stereo not drawn) [Compound 442, N1-(4-(2,6-dimethylmorpholino)-2-methylphenyl)cyclohexane-1,2-diamine] yielded an EC50 of 100 to 1000 nM.
Regarding `CC1(C)CCC(c2ccc(NCCN3CCCC3)cc2)CC1` [Compound 101, 4-(4,4-dimethylcyclohexyl)-N-(2-(pyrrolidin-1-yl)ethyl)aniline], the EC50 is 0.1 to 100 nM.
`CC1(C)CCC(c2ccc(NC3CCC(O)CC3)cc2)CC1` (single isomer, unassigned) [Compound 205A, 4-((4-(4,4-dimethylcyclohexyl)phenyl)amino)cyclohexan-1-ol] gave an EC50 of 0.1 to 100 nM.
As to `CC(C)C1CCN(c2ncc(NC3CCNC3)cn2)CC1` (stereo not drawn) [Compound 36, 2-(4-isopropylpiperidin-1-yl)-N-(pyrrolidin-3-yl)pyrimidin-5-amine], the EC50 fell in the range of 0.1 to 100 nM.
Regarding `CCC(C)(C)c1ccc(NC2CCC(N)C2)cc1` (stereo not drawn) [Compound 272, N^1-(4-(tert-pentyl)phenyl)cyclopentane-1,3-diamine], the EC50 lay in the range of 0.1 to 100 nM.
In turn, `COC1(C)CCN(c2ccc(NC3CC4(CC(N)C4)C3)c(C)n2)CC1` (stereo not drawn) [Compound 536, N2-(6-(4-methoxy-4-methylpiperidin-1-yl)-2-methylpyridin-3-yl)spiro[3.3]heptane-2,6-diamine] registered an EC50 of 0.1 to 100 nM.
In turn, `NC1CCC(Nc2cccc(N3CCC(C(F)(F)F)CC3)c2)CC1` (stereo not drawn) [Compound 384, N1-(3-(4-(trifluoromethyl)piperidin-1-yl)phenyl)cyclohexane-1,4-diamine] yielded an EC50 of 100 to 1000 nM.
For the compound `Cc1nc(N2CCC(C(F)(F)F)CC2)ccc1NC1CC2(CC(N)C2)C1` (stereo not drawn) [Compound 376, N2-(2-methyl-6-(4-(trifluoromethyl)piperidin-1-yl)pyridin-3-yl) spiro[3.3]heptane-2,6-diamine], the EC50 lay within 0.1 to 100 nM.
The compound `CC(C)(C)c1ccc(NC2CCC(CCCCCN)CC2)cc1` (stereo not drawn) [Compound 326, N-(4-(5-aminopentyl)cyclohexyl)-4-(tert-butyl)aniline] yielded an EC50 of 0.1 to 100 nM.
Compound `CC1(C)CCC(c2ccc(NC3CCCC(CN)CC3)cc2)CC1` (stereo not drawn) [Compound 85, 4-(aminomethyl)-N-(4-(4,4-dimethylcyclohexyl)phenyl)cycloheptan-1-amine] had an EC50 of 0.1 to 100 nM.
Still for that read-out and setting: to `CC(C)(C)c1ccc(NC2CCCNC2)cc1` (stereo not drawn) [Compound 150, N-(4-(tert-butyl)phenyl)piperidin-3-amine] belongs 100 to 1000 nM; to `COCCCCOc1cc(NC2CCC(N)CC2)ccc1C(C)(C)C` (stereo not drawn) [Compound 254, N1-(4-(tert-butyl)-3-(4-methoxybutoxy)phenyl)cyclohexane-1,4-diamine], 0.1 to 100 nM; to `CCC(C)(C)c1ccc(NC2CC(CN)C2)cc1` (stereo not drawn) [Compound 333, N-(3-(aminomethyl)cyclobutyl)-4-(tert-pentyl)aniline], 0.1 to 100 nM.
`NC1CCC(Nc2ccc(F)cc2)CC1` (stereo not drawn) [Compound 134, N1-(4-fluorophenyl)cyclohexane-1,4-diamine] had an EC50 of 1000 to 10000 nM.
In turn, `NC1CCC(Nc2ccc(-n3cccn3)cc2)CC1` (stereo not drawn) [Compound 37A, N1-(4-(1H-pyrazol-1-yl)phenyl)cyclohexane-1,4-diamine] had a 50% effective concentration (EC50) of 1000 to 10000 nM.
Regarding `Cc1cc(C(C)(C)C)ccc1NC1CCC(N)CC1` (stereo not drawn) [Compound 184, N1-(4-(tert-butyl)-2-methylphenyl)cyclohexane-1,4-diamine], the EC50 lay within 100 to 1000 nM.
On the same count and under the same terms, to `COCC1CCC(Nc2ccc(C3CCC(C)(C)CC3)cc2)CC1` (stereo not drawn) [Compound 75] belongs 100 to 1000 nM.

Staying with this test, now noted: Homo sapiens, HT-1080, 20 h, ferroptosis inducer RSL3, 20 hours, ferroptosis inhibitory activity, Table 3.
`N[C@H]1CC[C@H](CNc2ccc(N3CCN(CC(F)(F)F)CC3)cc2F)CC1` [Compound 586, N-(((1r,4r)-4-aminocyclohexyl)methyl)-2-fluoro-4-(4-(2,2,2-trifluoroethyl)piperazin-1-yl)aniline]: the EC50 was in the range of 0.1 to 100 nM.
In turn, `CN(CC(F)(F)F)c1ccc2cc(NC3CC(N)C3)ccc2n1` (stereo not drawn) [Compound 655, N^6-(3-aminocyclobutyl)-N^2-methyl-N^2-(2,2,2-trifluoroethyl) quinoline-2,6-diamine] had an EC50 of 0.1 to 100 nM.

Staying with this test, now noted: Homo sapiens, ferroptosis inducer RSL3, 20 hours, ferroptosis inhibitory activity, Table 2.
`CC(C)(C)c1ccc(NCCC2CCC(N)CC2)cc1` (stereo not drawn) [Compound 336A, N-(2-(4-aminocyclohexyl)ethyl)-4-(tert-butyl)aniline] had an EC50 of 0.1 to 100 nM.
The same measure, in the same setting: for `CC(C)(C)c1ccc(NC2CCN(C(N)=O)CC2)cc1` [Compound 178, 4-((4-(tert-butyl)phenyl)amino)piperidine-1-carboxamide] the value was 1000 to 10000 nM.
